Test results taken from US20260295053A1, “COMPOUNDS FOR DEGRADATION AND INHIBITION OF KRAS (G12D) PROTEIN” (Shenzhen Ionova Life Science Co., Ltd., priority 2023, published 2026).
Each block holds one molecule with its values, some of them ahead of it.

Assays:
KRAS (G12D) = target: T1, KRAS (G12D) (Homo sapiens, UniProt P01116, G12D); test: KRAS (G12D) cellular degradation assay in AsPC-1 cells; assay type: cell-based; conditions: 24 hours, antibody fluorescence (Odyssey CLX), DC50 half-maximal degradation concentration
T1 construct: in-cell western with KRAS G12D antibody after 24 h
T1 sequence (P01116 1-188 isoform P01116-2 G12D): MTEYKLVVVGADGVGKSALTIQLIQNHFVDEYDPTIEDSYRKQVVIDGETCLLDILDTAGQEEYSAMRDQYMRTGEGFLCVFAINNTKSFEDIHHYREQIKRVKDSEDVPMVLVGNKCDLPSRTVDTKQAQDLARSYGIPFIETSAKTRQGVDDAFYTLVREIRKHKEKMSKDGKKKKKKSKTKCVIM
In short: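 AsPC-1 cells were seeded at 22,000/well for degradation and 3,500/well for proliferation. Compounds in 1:3 dilutions ([…] to 1.5 nM final) ran 24 h for degradation, read by in-cell immunofluorescence of KRAS G12D normalised to β-actin, and 6 days for proliferation (CellTiter Glo luminescence). DC50/IC50 came from dose-response fits.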

AsPC-1 cells = test: AsPC-1 cell proliferation assay (CellTiter Glo); assay type: cell-based; conditions: Homo sapiens, ASPC1, 144 h, 6 days
Description: ASPC-1 and PK-59 cellular assays ASPC-1 (ATCC cat. CRL-1682) and PK-59 (Nanjing Cobioer, Cat. No. CBP61184) were used in KRAS cellular degradation, pERK inhibition and proliferation assays. The two cell lines were maintained following vendor's instructions. For monitoring KRAS (G12D) cellular degradation and pERK biomarker inhibition, cells were seeded into a 96-well plate with 22,000 and 16,000 cells/well for assays in ASPC-1 and PK-59, respectively. Cells were incubated at 37° C. with 5% CO2 and cell density was monitored until ^~90% confluency was reached. Compounds were serially diluted at a 1:3 ratio and dispensed into each well at final concentrations ranging from […] to 1.5 nM. After incubation for 24 hours, the culture media were removed and the cells were subjected to fixation, permeabilization and blocking (Intercept blocking buffer, Li-cor). For KRAS (G12D) degradation, the cells were treated with primary antibody (KRAS G12D antibody, Cell Signaling Technologies, Cat. No. CST14429) and for β-actin (β-actin mAb, Beyotime, Cat. No. AF-5001), and followed by secondary antibodies, Anti-rabbit IgG (H+L) (DyLight™ 800 4×PEG Conjugate) or IRDye® 680RD Goat anti-Mouse IgG. For pERK inhibition assay, cells were treated with primary antibodies for pERK (Phospho-p44/42 MAPK (Erk1/2) (Thr202/Tyr204) (D13.14.4E) XP® Rabbit mAb, Cell Signaling Technologies, Cat. No. CST-4370) and β-actin (β-actin mAb, Beyotime, Cat. No. AF-5001), and followed by secondary antibodies, Anti-rabbit IgG (H+L) (DyLight™ 800 4×PEG Conjugate) or IRDye® 680RD Goat anti-Mouse IgG. Fluorescence signals were read on Odyssey CLX instrument. For cell proliferation assays, cells were seeded into a 96-well plate at 3,500 and 800 cells/well for assays in ASPC-1 and PK-59, respectively. Cells were incubated at 37° C. with 5% CO2 for overnight. Compounds were serially diluted at a 1:3 ratio and dispensed into each well at final concentrations ranging from […] to 1.5 nM. After incubation for 6 days, cell viability reagent (CellTiter Glo, Promega, Cat. No. G7573) was added to each well and luminescence was recorded on Molecular Devices Spectramax iD3 instrument. IC50, half-maximal inhibitory concentration for pERK inhibition or cell proliferation, and DC50, half-maximal degradation concentration in KRAS (G12D) cellular degradation were determined by fitting the corresponding dose response curves using GraphPad Prism software.
Wherein “A” means the value <10 nM, “B” means 10 nM<the value <100 nM, “C” means 100 nM<the value <1000 nM, and “D” means the value >1000 nM, in which, the value means the value of DC50 or IC50. NT means not tested.

Compound: CCn1nccc1-c1ccc([C@H](CO)NC(=O)[C@@H]2C[C@@H](O)CN2C(=O)[C@H](C(C)C)n2cc(-c3ccc(COc4c(-c5c(C)c(F)cc6[nH]ncc56)c(C5CC5)cc5c(N(C)[C@@H]6CCNC6)nc(O[C@H]6C[C@H](OC)C6)nc45)cc3)nn2)cc1 [Example 205, (2S,4R)-1-((2S)-2-(4-(4-(((6-cyclopropyl-7-(6-fluoro-5-methyl-1H-indazol-4-yl)-2-((1r,3R)-3-methoxycyclobutoxy)-4-(methyl((R)-pyrrolidin-3-yl)amino)quinazolin-8-yl)oxy)methyl)phenyl)-1H-1,2,3-triazol-1-yl)-3-methylbutanoyl)-N—((R)-1-(4-(1-ethyl-1H-pyrazol-5-yl)phenyl)-2-hydroxyethyl)-4-hydroxypyrrolidine-2-carboxamide]
DC50 (KRAS (G12D)): < 10 nM
IC50 (AsPC-1 cells): < 10 nM

Compound: CCn1nccc1-c1ccc([C@@H](NC(=O)[C@@H]2C[C@@H](O)CN2C(=O)[C@H](C(C)C)n2cc(-c3ccc(COc4c(-c5c(C)c(F)c(F)c6[nH]ncc56)c(C5CC5)cc5c(N(C)[C@H]6CCNC6)nc(OC[C@H](C)OC)nc45)cc3)nn2)[C@H](C)O)cc1 [Example 146, (2S,4R)-1-((2S)-2-(4-(4-(((6-cyclopropyl-7-(6,7-difluoro-5-methyl-1H-indazol-4-yl)-2-((S)-2-methoxypropoxy)-4-(methyl((S)-pyrrolidin-3-yl)amino)quinazolin-8-yl)oxy)methyl)phenyl)-1H-1,2,3-triazol-1-yl)-3-methylbutanoyl)-N-((1R,2S)-1-(4-(1-ethyl-1H-pyrazol-5-yl)phenyl)-2-hydroxypropyl)-4-hydroxypyrrolidine-2-carboxamide]
DC50 (KRAS (G12D)): 10 to 100 nM

Compound: CO[C@@H](C)COc1nc(N2C[C@H]3CN[C@H](C3)C2)c2cc(C3CC3)c(-c3c(C)c(F)cc4[nH]ncc34)c(OCc3ccc(-c4cn([C@H](C(=O)N5C[C@H](O)C[C@H]5C(=O)N[C@@H](CO)c5ccc(-c6scnc6C)cc5)C(C)C)nn4)cc3)c2n1 [Example 223, (2S,4R)-1-((2S)-2-(4-(4-(((4-((1R,5R)-3,6-diazabicyclo[3.2.1]octan-3-yl)-6-cyclopropyl-7-(6-fluoro-5-methyl-1H-indazol-4-yl)-2-((S)-2-methoxypropoxy)quinazolin-8-yl)oxy)methyl)phenyl)-1H-1,2,3-triazol-1-yl)-3-methylbutanoyl)-4-hydroxy-N—((R)-2-hydroxy-1-(4-(4-methylthiazol-5-yl)phenyl)ethyl)pyrrolidine-2-carboxamide]
DC50 (KRAS (G12D)): 10 to 100 nM

Compound: CO[C@@H](C)COc1nc(N2C[C@@H]3C[C@H]2CN3)c2cc(C3CC3)c(-c3c(C)c(F)cc4[nH]ncc34)c(OCc3ccc(-c4cn([C@H](C(=O)N5C[C@H](O)C[C@H]5C(=O)N[C@H](C#Cc5ccnc6nn(C)cc56)CO)C(C)C)nn4)cc3)c2n1 [Example 191, (2S,4R)-1-((2S)-2-(4-(4-(((4-((1S,4S)-2,5-diazabicyclo[2.2.1]heptan-2-yl)-6-cyclopropyl-7-(6-fluoro-5-methyl-1H-indazol-4-yl)-2-((S)-2-methoxypropoxy)quinazolin-8-yl)oxy)methyl)phenyl)-1H-1,2,3-triazol-1-yl)-3-methylbutanoyl)-4-hydroxy-N—((R)-1-hydroxy-4-(2-methyl-2H-pyrazolo[3,4-b]pyridin-4-yl)but-3-yn-2-yl)pyrrolidine-2-carboxamide]
DC50 (KRAS (G12D)): 10 to 100 nM

Compound: CCn1nccc1-c1ccc([C@H](CO)NC(=O)[C@@H]2C[C@@H](O)CN2C(=O)[C@H](C(C)C)n2cc(-c3ccc(COc4c(-c5c(C)c(F)cc6[nH]ncc56)c(C5CC5)cc5c(N6C[C@@H]7CN[C@@H](C7)C6)nc(OC[C@H](C)OC)nc45)cc3)nn2)cc1 [Example 229, (2S,4R)-1-((2S)-2-(4-(4-(((4-((1S,5S)-3,6-diazabicyclo[3.2.1]octan-3-yl)-6-cyclopropyl-7-(6-fluoro-5-methyl-1H-indazol-4-yl)-2-((S)-2-methoxypropoxy)quinazolin-8-yl)oxy)methyl)phenyl)-1H-1,2,3-triazol-1-yl)-3-methylbutanoyl)-N—((R)-1-(4-(1-ethyl-1H-pyrazol-5-yl)phenyl)-2-hydroxyethyl)-4-hydroxypyrrolidine-2-carboxamide]
DC50 (KRAS (G12D)): 10 to 100 nM

Compound: CCn1nccc1-c1ccc([C@H](CO)NC(=O)[C@@H]2C[C@@H](O)CN2C(=O)[C@H](C(C)C)n2cc(-c3ccc(COc4c(-c5c(C)c(F)cc6[nH]ncc56)c(C5CC5)cc5c(N6CCNCCC6C)nc(OC[C@H](C)OC)nc45)cc3)nn2)cc1 (stereo in doubt) [Example 153, (2S,4R)-1-((2S)-2-(4-(4-(((6-cyclopropyl-7-(6-fluoro-5-methyl-1H-indazol-4-yl)-2-((S)-2-methoxypropoxy)-4-((S)-7-methyl-1,4-diazepan-1-yl)quinazolin-8-yl)oxy)methyl)phenyl)-1H-1,2,3-triazol-1-yl)-3-methylbutanoyl)-N—((R)-1-(4-(1-ethyl-1H-pyrazol-5-yl)phenyl)-2-hydroxyethyl)-4-hydroxypyrrolidine-2-carboxamide]
DC50 (KRAS (G12D)): 10 to 100 nM

Compound: CCn1nccc1-c1ccc([C@H](CO)NC(=O)[C@@H]2C[C@@H](O)CN2C(=O)[C@H](C(C)C)n2cc(-c3ccc(COc4c(-c5c(C)c(F)cc6[nH]ncc56)c(C5CC5)cc5c(N6CCC[C@](C)(O)C6)nc(OC[C@H](C)OC)nc45)cc3)nn2)cc1 [Example 39, (2S,4R)-1-((2S)-2-(4-(4-(((6-cyclopropyl-7-(6-fluoro-5-methyl-1H-indazol-4-yl)-4-((S)-3-hydroxy-3-methylpiperidin-1-yl)-2-((S)-2-methoxypropoxy)quinazolin-8-yl)oxy)methyl)phenyl)-1H-1,2,3-triazol-1-yl)-3-methylbutanoyl)-N—((R)-1-(4-(1-ethyl-1H-pyrazol-5-yl)phenyl)-2-hydroxyethyl)-4-hydroxypyrrolidine-2-carboxamide]
DC50 (KRAS (G12D)): 10 to 100 nM

Compound: CO[C@@H](C)COc1nc(N2CCCNCC2)c2cc(C3CC3)c(-c3c(C)c(F)cc4[nH]ncc34)c(OCc3ccc(-c4cn([C@H](C(=O)N5C[C@H](O)C[C@H]5C(=O)N[C@H](CO)c5ccc(-c6scnc6C)c6c5CC6)C(C)C)nn4)cc3)c2n1 [Example 221, (2S,4R)-1-((2S)-2-(4-(4-(((6-cyclopropyl-4-(1,4-diazepan-1-yl)-7-(6-fluoro-5-methyl-1H-indazol-4-yl)-2-((S)-2-methoxypropoxy)quinazolin-8-yl)oxy)methyl)phenyl)-1H-1,2,3-triazol-1-yl)-3-methylbutanoyl)-4-hydroxy-N—((S)-2-hydroxy-1-(5-(4-methylthiazol-5-yl)bicyclo[4.2.0]octa-1(6),2,4-trien-2-yl)ethyl)pyrrolidine-2-carboxamide]
DC50 (KRAS (G12D)): 100 to 1000 nM

Other lines, results leading:

DC50 (KRAS (G12D)): 10 to 100 nM
IC50 (AsPC-1 cells): 10 to 100 nM
Compound: CCn1nccc1-c1ccc(CNC(=O)[C@@H]2C[C@@H](O)CN2C(=O)[C@H](C(C)C)n2cc(-c3ccc(COc4c(-c5c(C)c(F)cc6[nH]ncc56)c(C5CC5)cc5c(N6C[C@H]7C[C@@H]6CN7)nc(OC[C@H](C)OC)nc45)cc3)nn2)cc1 (single isomer, unassigned) [Example 7A]

DC50 (KRAS (G12D)): 10 to 100 nM
IC50 (AsPC-1 cells): 10 to 100 nM
Compound: CO[C@@H](C)COc1nc(N2C[C@@H]3C[C@H]2CN3)c2cc(C3CC3)c(-c3c(C)c(F)cc4[nH]ncc34)c(OCc3ccc(-c4cn([C@H](C(=O)N5C[C@H](O)C[C@H]5C(=O)N[C@H](C#Cc5cccc6scnc56)CO)C(C)C)nn4)cc3)c2n1 [Example 80]

DC50 (KRAS (G12D)): 10 to 100 nM
Compound: CCn1nccc1-c1ccc([C@H](CO)NC(=O)[C@@H]2C[C@@H](O)CN2C(=O)[C@H](C(C)C)n2cc(-c3ccc(COc4c(-c5c(C)c(F)cc6[nH]ncc56)c(C5CC5)cc5c(N6CC7COCC(C6)N7)nc(OC[C@H](C)OC)nc45)cc3)nn2)cc1 [Example 37, (2S,4R)-1-((2S)-2-(4-(4-(((4-(3-oxa-7,9-diazabicyclo[3.3.1]nonan-7-yl)-6-cyclopropyl-7-(6-fluoro-5-methyl-1H-indazol-4-yl)-2-((S)-2-methoxypropoxy)quinazolin-8-yl)oxy)methyl)phenyl)-1H-1,2,3-triazol-1-yl)-3-methylbutanoyl)-N—((R)-1-(4-(1-ethyl-1H-pyrazol-5-yl)phenyl)-2-hydroxyethyl)-4-hydroxypyrrolidine-2-carboxamide]
